Measured values from paper PMC8915595, “Revisiting the application of Immobilized Artificial Membrane (IAM) chromatography to estimate in vivo distribution properties of drug discovery compounds based on the model of marketed drugs” (ADMET & DMPK, 2020).
Read-outs that look alike come from different tables or passages of the source.

Key:
[1] = human
[2] = IAM chromatography on new IAM.PC.DD2 columns (gradient HPLC, CHI (IAM)); assay type: physicochemical; design: key to CHI (IAM) “new” / P20511-014-3 CHI (IAM): CHI (IAM) from retention times calibrated to predefined CHI standards; settings: for P20511-014-3 CHI (IAM): new IAM.PC.DD2 column batch P20511-014-3, pH 7.4; for R20511-014-3 CHI (IAM): new IAM.PC.DD2 column batch R20511-014-3, pH 7.4; for CHI (IAM) deviation between reference and new IAM.PC.DD2 columns / CHI (IAM) “new”: system suitability test compounds; for CHI (IAM) “new”: new IAM.PC.DD2 columns, pH 7.4; for outlier in correlation of reference CHI (IAM) with CHI (IAM) on column R20511-014-3: lower CHI (IAM) on new batches, outlier if difference greater than 7.2 CHI IAM units
Procedure: The IAM binding was measured using IAM.PC.DD2 HPLC columns (Regis Technologies, Inc., IL, USA) with dimensions of 100 x 4.6 mm, particle size 10 μm with 300 Å pore size.
Two batches of IAM.PC.DD2 columns were studied (R20511-014-3 and P20511-014-3) that had been prepared using the new batches of silica support.
The retention times were standardized using the IAM calibration mixture, containing octanophenone, heptanophenone, hexanophenone, valerophenone, butyrophenone, propiophenone, acetophenone, acetanilide and paracetamol. The retention times of the compounds were plotted against the isocratically determined and predefined CHI (IAM) values listed in Table 1. The slope and intercept of the obtained straight line was used to calculate the CHI IAM values of new compounds.

[3] = target: T1, human serum albumin (HSA) (Homo sapiens, UniProt P02768); assay: Protein binding on chemically bonded HSA column (Chiralpak-HSA); settings: remeasured in this study, pH 7.4
T1 sequence (P02768 25-609): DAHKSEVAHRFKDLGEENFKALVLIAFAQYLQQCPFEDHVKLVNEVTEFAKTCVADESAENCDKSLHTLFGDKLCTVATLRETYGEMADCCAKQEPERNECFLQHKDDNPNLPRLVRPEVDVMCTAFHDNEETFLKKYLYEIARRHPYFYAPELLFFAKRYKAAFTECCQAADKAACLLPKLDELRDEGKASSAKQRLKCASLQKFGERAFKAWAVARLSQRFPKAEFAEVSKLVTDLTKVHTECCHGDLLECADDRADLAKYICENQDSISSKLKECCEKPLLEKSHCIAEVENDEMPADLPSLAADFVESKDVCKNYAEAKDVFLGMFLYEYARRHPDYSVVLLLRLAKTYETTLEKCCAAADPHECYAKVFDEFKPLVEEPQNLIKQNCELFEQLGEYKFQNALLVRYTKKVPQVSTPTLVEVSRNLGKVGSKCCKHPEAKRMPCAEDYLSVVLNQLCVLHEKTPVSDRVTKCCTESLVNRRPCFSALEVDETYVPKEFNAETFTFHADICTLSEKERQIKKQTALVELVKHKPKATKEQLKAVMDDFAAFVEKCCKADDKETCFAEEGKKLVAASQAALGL
Procedure: Mobile phase A was 50 mM ammonium acetate adjusted to pH 7.4 and mobile phase B was 2-propanol. The flow rate was 1.5 mL/min and the run time was 6 min. The 2-propanol gradient was applied from 0 to 35% from 0 to 3.00 min and kept at 35% until 4.00 min.

[4] = target: T1, human serum albumin (HSA); settings: cited from earlier work
[5] = cited from earlier work; for CHI (IAM) from ref [13]: reference CHI (IAM), old columns

| P20511-014-3 CHI (IAM) [2] | R20511-014-3 CHI (IAM) [2] | log K HSA [3] | outlier in correlation of reference CHI (IAM) with CHI (IAM) on column R20511-014-3 [2] | Structure (SMILES) | reference log Vdss [1] | CHI (IAM) deviation between reference and new IAM.PC.DD2 columns [2] | CHI (IAM) “new” [2] | log K HSA from ref [13] [4] | CHI (IAM) from ref [13] [5] | CHI (IAM) ([5]; system suitability test compounds, CHI (IAM) reference from the literature) | CHI (IAM) ([5]; previously published, IAM column manufactured 2004-2012) |
| --- | --- | --- | --- | --- | --- | --- | --- | --- | --- | --- | --- |
| 39.26 | 39.50 |  |  | CC(=O)N1CCN(c2ccc(OCC3COC(Cn4ccnc4)(c4ccc(Cl)cc4Cl)O3)cc2)CC1 (stereo not shown) [Ketoconazole] |  |  |  |  | 42.90 |  |  |
| 30.05 | 30.18 |  |  | C[C@H]1C[C@H]2[C@@H]3CCC4=CC(=O)C=C[C@]4(C)[C@@]3(F)[C@@H](O)C[C@]2(C)[C@@]1(O)C(=O)CO [Betamethasone] |  |  |  |  | 31.70 |  |  |
| 44.45 | 44.37 |  |  | CCOC(=O)C1=C(C)NC(C)=C(C(=O)OC)C1c1cccc(Cl)c1Cl (stereo not shown) [Felodipine] |  |  |  |  | 46.10 |  |  |
| 27.20 | 27.31 |  |  | C[C@]12C=CC(=O)C=C1CC[C@@H]1[C@@H]2[C@@H](O)C[C@@]2(C)[C@H]1CC[C@]2(O)C(=O)CO [Prednisolone] |  |  |  |  | 28.00 |  |  |
|  |  |  | outliers | CN(C)CCc1c[nH]c2ccc(C[C@H]3COC(=O)N3)cc12 [zolmitriptan] |  |  |  |  |  |  |  |
| 29.35 | 29.82 |  |  | COc1cc2nc(N3CCN(C(=O)c4ccco4)CC3)nc(N)c2cc1OC [Prazosin] |  |  |  |  | 31.60 |  |  |
| 37.48 | 38.29 |  |  | CC(CCc1ccccc1)NCC(O)c1ccc(O)c(C(N)=O)c1 (stereo not shown) [Labetalol] |  |  |  |  | 43.90 |  |  |
| 27.02 | 27.23 | 2.59 |  | C[C@]12CCC(=O)C=C1CC[C@@H]1[C@@H]2[C@@H](O)C[C@@]2(C)[C@H]1CC[C@]2(O)C(=O)CO [Hydrocortisone] |  |  |  |  | 27.90 |  |  |
| 23.89 | 22.93 |  |  | CC(C(=O)O)c1cccc(C(=O)c2ccccc2)c1 (stereo not shown) [Ketoprofen] |  | very similar | 20.0 |  | 21.90 |  | 21.9 |
| 18.27 | 18.27 |  |  | CCOC(=O)c1ncn2c1CN(C)C(=O)c1cc(F)ccc1-2 [Flumazenil] |  |  |  |  | 18.40 |  |  |

More lines, now with the values behind:

| Structure (SMILES) | P20511-014-3 CHI (IAM) [2] | R20511-014-3 CHI (IAM) [2] | log K HSA [3] | outlier in correlation of reference CHI (IAM) with CHI (IAM) on column R20511-014-3 [2] | reference log Vdss [1] | CHI (IAM) deviation between reference and new IAM.PC.DD2 columns [2] | CHI (IAM) “new” [2] | log K HSA from ref [13] [4] | CHI (IAM) from ref [13] [5] | CHI (IAM) ([5]; system suitability test compounds, CHI (IAM) reference from the literature) | CHI (IAM) ([5]; previously published, IAM column manufactured 2004-2012) |
| --- | --- | --- | --- | --- | --- | --- | --- | --- | --- | --- | --- |
| CC(=O)CC(c1ccccc1)c1c(O)c2ccccc2oc1=O (stereo not shown) [Warfarin] | 24.18 | 23.47 |  |  | -0.78 | very similar | 24.0 |  |  |  |  |
| CCn1nc(C(=O)O)c(=O)c2cc3c(cc21)OCO3 [Cinoxacin] | 6.67 | 5.31 | 0.91 |  | -0.42 |  |  | 0.79 |  |  |  |
| CCN(CC)CCNC(=O)c1ccc(N)cc1 [Procainamide] | 11.89 | 11.73 | 1.67 | outliers |  |  |  | 0.73 |  |  |  |
| CC(C)NCC(O)COc1cccc2ccccc12 (stereo not shown) [Propranolol] | 41.46 | 42.24 | 1.02 |  |  |  | 42.0 |  | 50.80 |  |  |
| CCN1CCCC1CNC(=O)c1cc(S(N)(=O)=O)ccc1OC (stereo not shown) [Sulpiride] | 16.15 | 15.80 |  | outliers | 0.12 |  |  | 4.84 | 25.50 |  |  |
| Cn1cnc2c1c(=O)[nH]c(=O)n2C [Theobromine] | -3.71 | -3.16 |  |  | -0.25 |  |  | 4.68 |  |  |  |
| CC(C)(C)NC(=O)[C@H]1CC[C@H]2[C@@H]3CC[C@H]4NC(=O)C=C[C@]4(C)[C@H]3CC[C@]12C [Finasteride] | 37.17 | 37.15 | 3.55 |  | 0.3 |  |  | 3.62 |  |  |  |
| COc1ccc2c(c1)c(CC(=O)O)c(C)n2C(=O)c1ccc(Cl)cc1 [Indomethacin] | 33.16 | 32.49 |  |  | -0.96 | very similar | 30.0 |  | 25.30 |  |  |
| COc1cc2c(c(OC)c1OC)-c1ccc(OC)c(=O)cc1[C@@H](NC(C)=O)CC2 [Colchicine] | 23.18 | 23.45 |  |  |  |  | 23.0 |  | 23.70 |  |  |
| COc1ccc(NS(=O)(=O)c2ccc(N)cc2)nn1 [Sulfamethoxypyridazine] | 11.16 | 11.11 | 4.27 |  | -0.59 |  |  | 2.33 |  |  |  |
| CN(C)CCCN1c2ccccc2CCc2ccccc21 [Imipramine] | 44.81 | 45.58 | 5.59 |  |  | > 5 CHI (IAM) unit | 45.0 |  | 51.60 |  |  |
| COc1ccc2cc(CCC(C)=O)ccc2c1 [Nabumetone] | 35.96 | 35.90 | 2.14 |  |  |  |  | 0.49 | 38.40 |  |  |
| CCCC1O[C@@H]2C[C@H]3[C@@H]4CCC5=CC(=O)C=C[C@]5(C)[C@H]4[C@@H](O)C[C@]3(C)[C@]2(C(=O)CO)O1 (stereo partly shown) [Budesonide] |  |  |  |  |  | very similar | 38 |  |  | 38.7 |  |
| Cc1noc(NS(=O)(=O)c2ccc(N)cc2)c1C [Sulfisoxazole] | 7.37 | 6.48 | 3.68 |  |  |  |  |  | 2.90 |  |  |
| O=C(O)Cc1ccccc1Nc1c(Cl)cccc1Cl [Diclofenac] | 35.85 | 35.18 |  |  | -0.67 |  |  |  | 33.50 |  |  |
| NC(=O)OCC(COC(N)=O)c1ccccc1 [Felbamate] | 39.21 | 39.16 | 4.15 |  |  |  |  | 3.46 | 19.07 |  |  |
| CCCc1cc(=O)[nH]c(=S)[nH]1 [Propylthiouracil] |  |  | 3.21 |  |  |  |  | 2.67 |  |  |  |
| OCCN1CCN(CCCN2c3ccccc3Sc3ccc(Cl)cc32)CC1 [Perphenazine] | 48.97 | 49.57 | 2.02 |  |  |  |  | 1.6 | 56.30 |  |  |
| COc1ccc(Cc2nccc3cc(OC)c(OC)cc23)cc1OC [Papaverine] | 31.15 | 31.22 | 0.39 |  |  |  |  |  | 34.40 |  |  |
| CCCCNCC(O)c1ccc(O)cc1 (stereo not shown) [Bamethan] | 18.03 | 18.53 | 0.42 |  |  |  |  |  |  |  |  |
| COc1cc(Cc2cnc(N)nc2N)cc(OC)c1OC [Trimethoprim] | 20.52 | 20.99 | 0.95 |  |  |  |  | 4.45 | 20.80 |  |  |
| CCN(CC)CCNC(=O)c1ccc(NC(C)=O)cc1 [Acecainide] | 17.57 | 17.72 | 0.52 |  |  |  |  | 0.69 | 23.30 |  |  |
| O=C1C(CC[S+]([O-])c2ccccc2)C(=O)N(c2ccccc2)N1c1ccccc1 (stereo not shown) [Sulfinpyrazone] | 26.89 | 26.19 | 2.66 |  |  |  |  | 3.17 | 26.10 |  |  |
| CC/C(=C(\c1ccccc1)c1ccc(OCCN(C)C)cc1)c1ccccc1 [Tamoxifen] |  |  | 4.82 |  |  |  |  | 1.29 |  |  |  |
| Clc1ccc2c(c1)C(N1CCNCC1)=Nc1ccccc1O2 [Amoxapine] | 44.74 | 45.41 | 2.70 |  |  |  |  | 2.15 | 56.50 |  |  |
| O=c1n(CCCN2CCN(c3cccc(Cl)c3)CC2)nc2ccccn12 [Trazodone] | 33.86 | 34.09 | 3.06 |  |  |  |  | 0.8 | 36.30 |  |  |
| Cn1c(=O)c2c(ncn2CC(O)CO)n(C)c1=O (stereo not shown) [Diprophylline] | -1.98 | -1.49 | 4.24 |  |  |  |  | 4.1 | -4.00 |  |  |
| O=C(CCCN1CCC(O)(c2ccc(Cl)cc2)CC1)c1ccc(F)cc1 [Haloperidol] |  |  |  |  |  | very similar | 48 |  |  |  |  |
